row,SMILES,melting point
1,CCCc1nc2c(N)nc3ccc(-c4ccc(CO)cc4)cc3c2s1,212 to 214 °C
2,CC(C)n1c(S)nc(-c2ccc(F)cc2)c1-c1ccc(F)cc1,308 to 312 °C
3,CCC(=Cc1ccc(C(=O)O)cc1Cl)[N+](=O)[O-],179 to 180 °C
4,CCCc1nn(-c2ccc(C(F)(F)F)cn2)cc1CCC(=O)OCC,73 to 74 °C
5,COc1cc2cc(C(=O)C(C)CC#N)sc2cc1OC (centres undefined),148 to 150 °C
6,N#Cc1ccc(-c2ccc(F)cc2)nc1Cl,178 °C
7,Fc1ccccc1C(c1ccccc1)n1cccc1 (centres undefined),81 to 82.5 °C
8,CCOc1cc(-n2nc(C)c(Cl)c2C)c(F)cc1Cl,106 to 108 °C
9,CCOC(=O)N1CCC(Nc2cc(OC)ccc2[N+](=O)[O-])CC1,115 to 117 °C
10,CCOC(=O)CC1(c2ccc(OC)c(OC)c2)CNC(=O)C1 (centres undefined),60 to 62 °C
11,CC(=CC#Cc1ccccc1)C(=O)NCCCCCC(=O)NO,135 to 137 °C
12,CCCCCCC(O)CCCCCCCCCCC(=O)NCCNCCO (centres undefined),102 °C
13,Cc1nc2c(OCc3ccccc3Cl)nccc2n1C,180 to 181 °C
14,N#Cc1cc2c3ccccc3n(Cc3ccccc3)c2s1,130 to 132 °C
15,COc1ccc(C)cc1NC(=O)Nc1ccc2c(c1)CCN(C(=O)Nc1ccc(OCC(O)CO)cc1Cl)C2 (centres undefined),119 to 121 °C
16,COc1cc2c(cc1OC)CN(NC1=NCCN1)C2,191 to 192 °C
17,CCOP(=O)(OCC)c1c(C)c2c(c(C)c1-c1c(OC)ccc3ccccc13)CN(S(=O)(=O)c1ccc(C)cc1)C2,58 to 60 °C
18,Oc1ccc(Cl)cc1C(O)(c1ccccc1)C1CCCCC1 (centres undefined),170 °C
19,O=c1c(Cc2ccncc2)c(-c2ccc(Cl)cc2)[nH]c2ccccc12,232 to 234 °C
20,COc1ccc(C2=NO[C@](CO)(CCO)C2)cc1OC1CCCC1,108 to 109 °C
21,COC(=O)c1ccc(CC(=O)c2ccc3c(c2)C(C)(C)CCC3(C)C)cc1,103 to 104 °C
22,CCOc1c(NCc2c(C)cc(C)cc2Cl)c(=O)c1=O,292 to 294 °C
23,CC1(C)[C@@H](CS(=O)(=O)c2ccc(S(C)(=O)=O)cc2)CC[C@@]1(C)NCC(=O)N1CCC[C@H]1C#N,162 to 166 °C
24,CC(C)OC(=O)NC1=NCC(c2cccc(F)c2)N1C (centres undefined),103 to 104 °C
25,CC(=O)N[C@H]1CC[C@H](CCN2CCN(c3ncc(C)c4occc34)CC2)CC1,208 °C
26,CC1=N[C@H](c2ccccc2)COC1=O,71 to 72 °C

row,SMILES,melting point
1,CC(C)(C)N=NC1(C(N)=O)CCCCC1,86 to 92 °C
2,COc1ccc2nc(-c3cccc(C)c3)cc(OCc3ccccc3)c2c1,133 to 134 °C
3,O=C1NC(=O)C(SCCO)=C1SCCO,46 to 50 °C
4,CC(C(=O)Nc1ccc2c(c1)CC(=O)N2)N1CCC(Cc2ccccc2)CC1 (centres undefined),153 to 155 °C
5,N#Cc1cc(I)c(I)[nH]1,211 to 213 °C
6,CC1(C(=O)NCC(=O)O)CC1(Cl)Cl (centres undefined),139 to 140 °C
7,CCCCOC(=O)n1c2ccccc2c2nc3ccccc3cc21,168 °C
8,CC(O)C1C(=O)NC1CC(=O)OCc1ccccc1 (mixture of isomers),67.5 to 68.5 °C
9,N#Cc1cnn2c(C(F)(F)F)cc(-c3ccc(F)c(C(F)(F)F)c3)nc12,204 °C
10,O=C1NC(=O)C(=Cc2ccccc2)S1,246 to 248 °C
11,CC1(C)CCC(C)(C)c2cc(C(=O)Nc3ccccc3)ccc21,144 to 146 °C
12,CNc1nc2c(OCc3ccccc3)cccc2n1C,213 °C
13,COC(=O)[C@H](C)NC(=O)c1cccc([N+](=O)[O-])c1N,133 °C
14,CCOC(=O)Cn1c(C(=O)O)cc2cc(Cl)ccc21,198 to 200 °C
15,CC(=O)OCc1csc(-c2nc3n(c2-c2ccncc2)CCC3)c1,126 °C
16,CC(=O)c1ccc(NC(=O)C(F)(F)F)nc1,147 to 149 °C
17,Cc1ccccc1Sc1c(N)cc(C(=O)O)cc1S(N)(=O)=O,277 °C
18,N#Cc1nn(-c2c(Cl)cc(C(F)(F)F)cc2Cl)c(N)c1-c1ccoc1Cl,153 °C
19,O=c1[nH]c2ccccc2cc1Br,263 to 265 °C
20,Cc1cccc(-c2ccnc3c(C(=O)N=CN(C)C)cnn23)c1,165 to 166 °C
21,CCOc1cc(F)ccc1N1CCN(Cc2ccc(CNC(C)=O)cc2)CC1,108 to 109 °C
22,COC(=O)CCCCc1ccc(O)c(CCC(=O)OC)n1,92 to 95 °C
23,Cc1ccccc1C(=O)Nc1ccc(C(=O)N2Cc3cccn3-c3ccccc32)cc1,206 to 207 °C
24,O=C(Nc1ccc2cc(CN3CCCC3)cnc2c1F)c1ccc(-c2ccccc2)cc1F,136 to 137 °C
25,N#Cc1cc(C=O)cc(O)c1O,210 to 215 °C
26,CS(=O)(=O)c1ccc(Cl)c(C(=O)Nc2ccc(-n3nc(C(F)(F)F)cc3C3CC3)cc2)c1,132 to 135 °C

row,SMILES,melting point
1,COP(=O)(OC)C(O)=Cc1ccc(C)cc1,100 to 102 °C
2,CS(=O)(=O)Nc1ccc2c(c1)S(=O)(=O)NC1CCCN21 (centres undefined),177 to 180 °C
3,O=C1c2ccccc2C(=O)N1CC(=O)N1c2ccccc2N(Cc2ccccc2)C(=O)CC1C=Cc1ccccc1 (centres undefined),183 to 184 °C
4,COC(=O)CCC12CCC(=O)N1C(=O)CC2,110 to 112 °C
5,Cc1cc2n(c1C(=O)c1cccs1)CCC2C(=O)O (centres undefined),166 °C
6,CC(=O)c1cc2cccc(NS(=O)(=O)c3cccs3)c2[nH]1,241 to 243 °C
7,O=C(N1CCCC1)C(CCN1CCC(O)(c2ccccc2)CC1)(c1ccccc1)c1ccccc1,188 °C
8,Oc1cccc(-c2ncc3ncc(Cl)cc3n2)c1,252 to 253 °C
9,CCc1c([N+](=O)[O-])c(C(N)=O)nn1CCN1CCOCC1,132 to 133 °C
10,CC12CCC(O)CC1CCC1C2CCC2(C)C(C=NNC(N)=O)CCC12O (centres undefined),222 to 226 °C
11,CCC1CC(=O)C(C(=O)NS(=O)(=O)c2ccc(C)cc2)C(=O)C1 (centres undefined),86 to 87 °C
12,O=S(=O)(Nc1ccc2c(OCc3coc(-c4ccccc4)n3)cccc2c1)C(F)(F)F,195 to 197 °C
13,CCCCc1nc2c(N)nc3cccnc3c2n1CCCCN,212 to 213 °C
14,Cc1c(C#N)c(N)n(-c2ccccc2Br)c1C,233 to 235 °C
15,Cc1ccc(-c2nn(Cc3ccccc3)c(N)c2C#N)cc1,162 to 163 °C
16,CCOC(=O)[C@H](CCc1ccccc1)N(C(=O)OCC(Cl)(Cl)Cl)[C@@H](C)C(=O)O,73 to 75 °C
17,CC(C)(C)OC(=O)N1OC2C=CC1C2 (centres undefined),52 to 53 °C
18,CCOC(=N)c1ccc(-c2cc3ncn([C@H](C)[C@](O)(Cn4cncn4)c4ccc(F)cc4F)c(=O)c3s2)cc1,158 to 161 °C
19,CN(C)C=Nc1c(I)c(=O)n(Cc2ccccc2)c(=O)n1C,186 °C
20,c1ccc2c3c4c(nc2c1)CCCC4SCCN3 (centres undefined),171 to 175 °C
21,Cc1cc2c(cc1C(=O)CBr)C(C)(C)CC(C)C2(C)C (centres undefined),68 °C
22,O=C(O)c1ccc(CC2COc3ccc(OCc4ccc5ccccc5n4)cc3C2O)cc1 (centres undefined),199 to 201 °C
23,NC(=O)C1CCN(Cc2ccc(-c3cc4ncnc(Nc5ccc6[nH]ccc6c5)c4s3)cc2)CC1,198 to 205 °C
24,CCn1c(-c2ccccc2)c(C2=CCC(C(=O)O)CC2)c2ccccc21 (centres undefined),147 to 150 °C
25,CC(C)C(=O)NC1CCc2c(c3cc(C#N)ccc3n2Cc2ncccc2F)C1 (centres undefined),213 to 216 °C
26,O=C(O)c1ccc(C(=O)Nc2ccccc2C(c2ccc(O)cc2)c2ccc(O)cc2)cc1,280 to 282 °C

row,SMILES,melting point
1,NC(=O)c1nc(-c2cccc(O)c2)nc2c1[nH]c(=O)n2-c1cccc(F)c1,> 375 °C
2,O=C(c1ccc(-c2cnc3c(c2)N(Cc2c(F)ccc(F)c2Cl)CCN3)cc1)N1CCC(N2CCCC2)CC1,93 to 95 °C
3,CC(=O)Nc1c(C)c(C)c2c(c1C)CC(C)(CN1CCC(c3ccccc3)CC1)O2 (centres undefined),94 to 96 °C
4,O=C(O)c1cccc2c1Oc1c(cccc1C(=O)O)N2,146 °C
5,CCC(N=O)C(C)(C)Cl (centres undefined),85 to 86 °C
6,CC(=O)Nc1ccc(C2COc3cc(O)c(O)cc3C2)cc1 (centres undefined),201 to 203 °C
7,CCOC(=O)Nc1ccc(OC)cc1C(C)=O,97 to 100 °C
8,COC(=O)c1cn(-c2cc(C(=O)Nc3cc(C(C)(C)C)cc(NS(C)(=O)=O)c3OC)cc(C)c2C)nn1,199 °C
9,COc1ccc(CNC(=O)C(Cc2ccccc2)NC(=O)Nc2n[nH]c(=S)s2)cc1OC (centres undefined),207 to 210 °C
10,COC(=O)CCCc1cc2nc(Cl)ccc2n1S(=O)(=O)c1ccc(OC(F)(F)F)cc1,109 °C
11,Cc1csc(N2CCN(Cc3ccc(C(=O)NCc4ccccc4)cc3)C2=O)n1,185 to 186 °C
12,CCn1c(=S)c2[nH]c(C(C)C)nc2n(CC)c1=O,168 to 170 °C
13,O=C(Nc1cccc(-c2ccnc3c(C(=O)c4cccs4)cnn23)c1)OCc1cccnc1,> 200 °C
14,CC(C)C[C@H](NC(=O)OCc1ccccc1)C(=O)N[C@@H](Cc1cccs1)C(=O)CSCc1ccco1,106 to 107 °C
15,N#Cc1ccc(F)cc1-c1ccco1,55 to 56 °C
16,CCCCc1nc(Cl)c(CO)n1Cc1ccc(-c2ccccc2-c2nnn(C(c3ccccc3)(c3ccccc3)c3ccccc3)n2)cc1,168 to 169 °C
17,Cc1cc(C#N)sc1-c1ccc2c(c1)C(C)(C)C(=O)N2,192 to 193 °C
18,Nc1ccc2ncc(Br)cc2n1,168 to 169 °C
19,NS(=O)(=O)c1ccc2c(c1)C(=O)c1ccccc1C2=O,258 to 261 °C
20,Cc1nn(C)c(CBr)c1Oc1cc(Cl)cc(C#N)c1,76 to 78 °C
21,COc1ccc(C2=C(NC(=O)Nc3c(C)cccc3C(C)C)CN(C)c3ccc(Cl)cc32)cc1OC,200 to 201 °C
22,Cc1c(NC(=O)C(CSC(=O)Cc2cccs2)Cc2ccccc2)cccc1C(=O)O (centres undefined),134 to 137 °C
23,Cc1csc(N)c1S(=O)(=O)NC(=S)NC(C)C,118 to 120 °C
24,COC(=O)c1c(N)ncn1C1c2ccccc2CC1(C)C (centres undefined),100 to 105 °C
25,S=C(NCc1ccccc1)C1(c2ccccn2)CCCS1 (centres undefined),71 °C
26,CCCCCCNC(=O)c1ccccc1I,104 to 105 °C

# From a melting point compilation (Tetko et al.; mined from patent text by program, amines drawn as free bases though some values may be those of a salt)
